Test system: Plasmodium falciparum
Test: Radioactive antimalarial assay (parasite specific uptake of radiolabel)
Assay type: cell-based
Details: P. falciparum
Method: Compound of formula Ia was evaluated against Eimeria tenella, Toxoplasma gondii, and Plasmodium falciparum according to methods reported in the literature.
The antimalarial activity was determined in a radioactive assay following the general protocol described in Desjardins et al, "Quantitative Assessment of Antimalarial Activity In Vitro by a Semiautomated Microdilution Technique" Antimicrobial Agents and Chemotherapy. 1979, 16:710-718.

## CCC(=O)CCCCC[C@@H]1NC(=O)[C@H]2CCCCN2C(=O)[C@H]([C@@H](C)CC)NC(=O)[C@H](Cc2cn(OC)c3ccccc23)NC1=O [Ia]
  IC50 (the concentration of drug which inhibits the parasite specific uptake of radiolabel by 50%): 0.054 µg/mL

From patent US5861375A, “Antiprotozoal cyclic tetrapeptides” (Merck & Co., Inc., priority 1997, dated 1999)
